Source: ChEMBL document CHEMBL1687856, “Oroidin inhibits the activity of the multidrug resistance target Pdr5p from yeast plasma membranes” (J Nat Prod, 2011)
Activity calls are given as the source filed them. The calls are words filed in the database; no cut-off is given here.

Tests used:
Saccharomyces cerevisiae [1] = experiment: Inhibition of Pdrp5-mediated rhodamine 6G accumulation in Saccharomyces cerevisiae AD124567 at 20 uM after 2 hrs by fluorescence microscopic analysis
[2] = Inhibition of Pdr5p-dependent ATPase activity in Saccharomyces cerevisiae AD124567 assessed as release of inorganic phosphate after 60 mins […]
Saccharomyces cerevisiae [3] = experiment: Antimicrobial activity against Pdrp5 overexpressing Saccharomyces cerevisiae AD124567 assessed as growth yield reduction at 200 uM after 48 hrs by chemosensitization assay; format: functional; settings: AD124567, 48 h, read-out: GI
Saccharomyces cerevisiae [4] = experiment: Inhibition of Prdp5 in Saccharomyces cerevisiae AD124567 assessed as inhibition of glucose-dependent rhodamine 6G efflux after 13 mins at 200 uM by spectrofluorimetry in presence of 2-deoxyglucose treated for 30 mins before compound addition
[5] = Inhibition of Pdr5p-dependent UTPase activity in Saccharomyces cerevisiae AD124567 assessed as release of inorganic phosphate after 60 mins […]
Saccharomyces cerevisiae [6] = experiment: Antimicrobial activity against Saccharomyces cerevisiae AD124567 assessed as growth yield reduction at 200 uM after 48 hrs by chemosensitization assay; settings: AD124567, 48 h, read-out: GI
Saccharomyces cerevisiae [7] = experiment: Inhibition of Prdp5 in Saccharomyces cerevisiae AD124567 assessed as inhibition of glucose-dependent rhodamine 6G efflux after 2 hrs at 100 uM by fluorescence microscopy
Saccharomyces cerevisiae [8] = experiment: Inhibition of Prdp5 in Saccharomyces cerevisiae AD124567 assessed as inhibition of glucose-dependent rhodamine 6G efflux after 13 mins by spectrofluorimetry in presence of 2-deoxyglucose treated for 30 mins before compound addition

SMILES | inhibition (Saccharomyces cerevisiae [1]) | IC50 [2] [µM] | inhibition of growth at 200 µM (Saccharomyces cerevisiae [3]) [%] | inhibition (Saccharomyces cerevisiae [4]) [%] | IC50 [5] [µM] | inhibition of growth at 200 µM (Saccharomyces cerevisiae [6]) [%] | inhibition (Saccharomyces cerevisiae [7]) | inhibition (Saccharomyces cerevisiae [8])
C=CC[C@@H]1/C=C(\C)C[C@H](C)C[C@H](OC)[C@H]2O[C@@](O)(C(=O)C(=O)N3CCCC[C@H]3C(=O)O[C@H](/C(C)=C/[C@@H]3CC[C@@H](O)[C@H](OC)C3)[C@H](C)[C@@H](O)CC1=O)[C@H](C)C[C@@H]2OC | Active |  |  |  |  |  |  | 
Nc1ncc(/C=C/CNC(=O)c2cc(Br)c(Br)[nH]2)[nH]1 [OROIDIN] |  | 20 | 30 | 60 | 13 | 30 | Active | Dose-dependent effect
